How the values were obtained:
Test in all cases: cells
Assay type in all cases: functional, cell-based, Homo sapiens
Ca9-22 = conditions: Homo sapiens, Ca9-22;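 note: growth inhibition of Ca9-22 cells, read out with a cell viability assay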
Description: SANGER: Inhibition of human Ca9-22 cell growth in a cell viability assay.

HPAF-II = conditions: Homo sapiens, HPAF-II;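 note: growth inhibition of HPAF-II cells, read out with a cell viability assay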
Description: SANGER: Inhibition of human HPAF-II cell growth in a cell viability assay.

SK-MEL-24 = conditions: Homo sapiens, SK-MEL-24;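 note: growth inhibition read out by a cell viability assay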
Description: SANGER: Inhibition of human SK-MEL-24 cell growth in a cell viability assay.

LN-405 = conditions: Homo sapiens, LN-405
Description: SANGER: Inhibition of human LN-405 cell growth in a cell viability assay.

NCI-H2291 = conditions: Homo sapiens, NCI-H2291
Description: SANGER: Inhibition of human NCI-H2291 cell growth in a cell viability assay.

OVCAR-8 = conditions: Homo sapiens, OVCAR-8;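 note: growth inhibition of human OVCAR-8 cells, read out by a cell viability assay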
Description: SANGER: Inhibition of human OVCAR-8 cell growth in a cell viability assay.

ESS-1 = conditions: Homo sapiens, ESS-1;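 note: growth inhibition of human ESS-1 cells, read out by a cell viability assay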
Description: SANGER: Inhibition of human ESS-1 cell growth in a cell viability assay.

COLO-792 = conditions: Homo sapiens, COLO-792
Description: SANGER: Inhibition of human COLO-792 cell growth in a cell viability assay.

SCC-4 = conditions: Homo sapiens, SCC-4;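 note: growth inhibition of human SCC-4 cells, read out as cell viability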
Description: SANGER: Inhibition of human SCC-4 cell growth in a cell viability assay.

NCI-H1437 = conditions: Homo sapiens, NCI-H1437;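 note: growth inhibition of human NCI-H1437 cells, read out by a cell viability assay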
Description: SANGER: Inhibition of human NCI-H1437 cell growth in a cell viability assay.

BT-549 = conditions: Homo sapiens, BT-549
Description: SANGER: Inhibition of human BT-549 cell growth in a cell viability assay.

HCT-116 = conditions: Homo sapiens, HCT-116
Description: SANGER: Inhibition of human HCT-116 cell growth in a cell viability assay.

BPH-1 = conditions: Homo sapiens, BPH-1;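 note: cell viability assay measuring growth inhibition of human BPH-1 cells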
Description: SANGER: Inhibition of human BPH-1 cell growth in a cell viability assay.

MKN-45 = conditions: Homo sapiens, MKN-45;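 note: growth inhibition of human MKN-45 cells, measured with a cell viability assay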
Description: SANGER: Inhibition of human MKN45 cell growth in a cell viability assay.

HOP-92 = conditions: Homo sapiens, HOP-92;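 note: cell viability readout, with IC50 reflecting inhibition of HOP-92 cell growth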
Description: SANGER: Inhibition of human HOP-92 cell growth in a cell viability assay.

HCC70 = conditions: Homo sapiens, HCC70;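 note: cell viability assay measuring how strongly the compound suppresses proliferation of HCC70 cells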
Description: SANGER: Inhibition of human HCC70 cell growth in a cell viability assay.

786-0 = conditions: Homo sapiens
Description: SANGER: Inhibition of human 786-0 cell growth in a cell viability assay.

GAMG = conditions: Homo sapiens, GAMG;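 note: cell growth inhibition measured by a viability assay in the GAMG human cell line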
Description: SANGER: Inhibition of human GAMG cell growth in a cell viability assay.

CAL-33 = conditions: Homo sapiens, CAL-33;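 note: growth inhibition of CAL-33 cells, read out with a cell viability assay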
Description: SANGER: Inhibition of human CAL-33 cell growth in a cell viability assay.

COR-L105 = conditions: Homo sapiens, COR-L105;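 note: cell growth inhibition determined with a viability assay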
Description: SANGER: Inhibition of human COR-L105 cell growth in a cell viability assay.

SN12C = conditions: Homo sapiens, SN12C;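 note: growth inhibition of human SN12C cells, measured by a cell viability assay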
Description: SANGER: Inhibition of human SN12C cell growth in a cell viability assay.

SNU-387 = conditions: Homo sapiens, SNU-387
Description: SANGER: Inhibition of human SNU-387 cell growth in a cell viability assay.

YKG-1 = conditions: Homo sapiens, YKG-1;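 note: cell growth inhibition, read out with a viability assay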
Description: SANGER: Inhibition of human YKG-1 cell growth in a cell viability assay.

H-EMC-SS = conditions: Homo sapiens, H-EMC-SS
Description: SANGER: Inhibition of human H-EMC-SS cell growth in a cell viability assay.

MDA-MB-175-VII = conditions: Homo sapiens, MDA-MB-175-VII
BXPC-3 = conditions: Homo sapiens, BXPC-3;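 note: growth inhibition of human BxPC-3 cells, read out by a cell viability assay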
Description: SANGER: Inhibition of human BxPC-3 cell growth in a cell viability assay.

GMS-10 = conditions: Homo sapiens, GMS-10;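 note: growth inhibition of GMS-10 cells, read out as cell viability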
Description: SANGER: Inhibition of human GMS-10 cell growth in a cell viability assay.

NCI-H2087 = conditions: Homo sapiens, NCI-H2087;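 note: growth inhibition determined with a cell viability readout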
Description: SANGER: Inhibition of human NCI-H2087 cell growth in a cell viability assay.

NCI-H292 = conditions: Homo sapiens, NCI-H292;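 note: growth inhibition of NCI-H292 cells, read out with a cell viability assay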
Description: SANGER: Inhibition of human NCI-H292 cell growth in a cell viability assay.

MeWo = conditions: Homo sapiens, MeWo;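 note: growth inhibition of MeWo cells, determined by a cell viability readout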
Description: SANGER: Inhibition of human Mewo cell growth in a cell viability assay.

8505C = conditions: Homo sapiens, 8505C
Description: SANGER: Inhibition of human 8505C cell growth in a cell viability assay.

SW1088 = conditions: Homo sapiens, SW1088;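 note: growth inhibition of human SW1088 cells, read out by a cell viability assay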
Description: SANGER: Inhibition of human SW1088 cell growth in a cell viability assay.

UMC-11 = conditions: Homo sapiens, UMC-11;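 note: growth inhibition of UMC-11 cells, read out with a cell viability assay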
Description: SANGER: Inhibition of human UMC-11 cell growth in a cell viability assay.

NCI-H1703 = conditions: Homo sapiens, NCI-H1703;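 note: growth inhibition of NCI-H1703 cells, read out via a cell viability assay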
Description: SANGER: Inhibition of human NCI-H1703 cell growth in a cell viability assay.

HuP-T4 = conditions: Homo sapiens, HuP-T4;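 note: cell viability assay measuring how much HuP-T4 cell growth is inhibited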
Description: SANGER: Inhibition of human HuP-T4 cell growth in a cell viability assay.

BHY = conditions: Homo sapiens, BHY;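 note: cell growth inhibition read out by a viability assay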
Description: SANGER: Inhibition of human BHY cell growth in a cell viability assay.

SBC-5 = conditions: Homo sapiens, SBC-5;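 note: cell viability assay read-out, IC50 is the concentration that inhibits growth of the cells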
Description: SANGER: Inhibition of human SBC-5 cell growth in a cell viability assay.

Kasumi 1 = conditions: Homo sapiens, Kasumi 1;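 note: growth inhibition of human Kasumi-1 cells, read out by a cell viability assay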
Description: SANGER: Inhibition of human KASUMI-1 cell growth in a cell viability assay.

Structure (SMILES) | IC50 (Ca9-22) [µM] | IC50 (HPAF-II) [µM] | IC50 (SK-MEL-24) [µM] | IC50 (NCI-H2291) [µM] | IC50 (OVCAR-8) [µM] | IC50 (ESS-1) [µM] | IC50 (COLO-792) [µM] | IC50 (SCC-4) [µM] | IC50 (NCI-H1437) [µM] | IC50 (BT-549) [µM] | IC50 (HCT-116) [µM] | IC50 (MKN-45) [µM] | IC50 (HCC70) [µM] | IC50 (786-0) [µM] | IC50 (GAMG) [µM] | IC50 (CAL-33) [µM] | IC50 (COR-L105) [µM] | IC50 (SNU-387) [µM] | IC50 (H-EMC-SS) [µM] | IC50 (MDA-MB-175-VII) [µM] | other results
CC(C)c1ccccc1Cc1cc(C(=O)Nc2ccc(S(=O)(=O)c3ccccc3C(C)(C)C)cc2)c(O)c(O)c1O | 0.00382 | 0.228 | 0.41 | 21 | 0.471 | 0.141 | 0.247 | 1.3 | 0.538 | 0.68 | 0.0527 | 0.338 | 0.858 | 6.97 | 0.212 | 0.817 | 0.711 | 0.248 | 0.378 | 0.451 | IC50 (LN-405): 1.58 µM; IC50 (BPH-1): 0.286 µM; IC50 (HOP-92): 0.358 µM; IC50 (SN12C): 1.11 µM; IC50 (YKG-1): 0.0298 µM; IC50 (BXPC-3): 2.48 µM; IC50 (GMS-10): 0.443 µM; IC50 (NCI-H2087): 0.575 µM; IC50 (NCI-H292): 0.36 µM; IC50 (MeWo): 0.484 µM; IC50 (8505C): 0.221 µM; IC50 (SW1088): 0.455 µM; IC50 (UMC-11): 1.31 µM; IC50 (NCI-H1703): 0.217 µM; IC50 (HuP-T4): 0.543 µM; IC50 (BHY): 0.702 µM; IC50 (SBC-5): 0.147 µM
Nc1cccc2c1CN(C1CCC(=O)NC1=O)C2=O (configuration not stated) [LENALIDOMIDE] | > 5 | > 5 | > 5 | > 5 | > 5 | > 5 | > 5 | > 5 | > 5 | > 5 | > 5 | > 5 | > 5 | > 5 | > 5 | > 5 | > 5 | > 5 | > 5 | > 5 | IC50 (Kasumi 1): > 5 µM; IC50 (LN-405): > 5 µM; IC50 (BPH-1): > 5 µM; IC50 (HOP-92): > 5 µM; IC50 (SN12C): > 5 µM; IC50 (YKG-1): > 5 µM; IC50 (BXPC-3): > 5 µM; IC50 (GMS-10): > 5 µM; IC50 (NCI-H2087): > 5 µM; IC50 (NCI-H292): > 5 µM; IC50 (MeWo): > 5 µM; IC50 (8505C): > 5 µM; IC50 (SW1088): > 5 µM; IC50 (UMC-11): > 5 µM; IC50 (NCI-H1703): > 5 µM; IC50 (HuP-T4): > 5 µM; IC50 (BHY): > 5 µM; IC50 (SBC-5): > 5 µM
CN(C)C(=N)NC(=N)N [METFORMIN] | 7950 | 7740 | > 20000 | > 20000 | > 20000 | > 20000 | 7510 | > 20000 | > 20000 | 4200 | > 20000 | > 20000 | > 20000 | > 20000 | > 20000 | > 20000 | > 20000 | > 20000 | > 20000 | > 20000 | IC50 (Kasumi 1): 378 µM; IC50 (BXPC-3): > 20000 µM; IC50 (GMS-10): > 20000 µM; IC50 (NCI-H2087): > 20000 µM; IC50 (NCI-H292): 5870 µM; IC50 (MeWo): > 20000 µM; IC50 (8505C): 15400 µM; IC50 (SW1088): > 20000 µM; IC50 (UMC-11): > 20000 µM; IC50 (NCI-H1703): 17300 µM; IC50 (BHY): > 20000 µM; IC50 (SBC-5): 17100 µM

Reference: ChEMBL document CHEMBL1201861, “Genomics of Drug Sensitity in Cancer screening data, Wellcome Trust Sanger Institute”
